For this test, the target named is T1, human type 1 glycine transporter (GlyT1) (Homo sapiens, UniProt P48067).
T1 construct: T98G cells (glioma cells) expressing human type 1 glycine transporter (GlyT1) were used
T1 sequence (P48067 1-706): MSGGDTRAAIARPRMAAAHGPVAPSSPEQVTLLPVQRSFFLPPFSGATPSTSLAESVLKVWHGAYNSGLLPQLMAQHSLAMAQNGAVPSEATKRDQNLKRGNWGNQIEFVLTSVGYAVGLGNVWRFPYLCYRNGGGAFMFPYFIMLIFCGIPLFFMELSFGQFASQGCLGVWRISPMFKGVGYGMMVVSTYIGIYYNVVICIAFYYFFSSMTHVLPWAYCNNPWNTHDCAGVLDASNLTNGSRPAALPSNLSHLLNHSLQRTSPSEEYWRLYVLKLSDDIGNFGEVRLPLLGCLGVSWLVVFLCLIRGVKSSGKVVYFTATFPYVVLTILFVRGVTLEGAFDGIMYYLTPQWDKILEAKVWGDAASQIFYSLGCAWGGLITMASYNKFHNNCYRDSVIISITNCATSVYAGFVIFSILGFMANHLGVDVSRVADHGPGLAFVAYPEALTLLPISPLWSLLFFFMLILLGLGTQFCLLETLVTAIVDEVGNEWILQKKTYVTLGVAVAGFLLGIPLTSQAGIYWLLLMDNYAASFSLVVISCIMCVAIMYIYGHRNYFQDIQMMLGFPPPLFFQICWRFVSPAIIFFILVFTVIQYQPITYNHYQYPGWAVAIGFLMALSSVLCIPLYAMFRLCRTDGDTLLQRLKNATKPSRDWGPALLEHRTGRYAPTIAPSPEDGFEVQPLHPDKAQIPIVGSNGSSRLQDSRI
Briefly: Glycine uptake inhibition experiment ([3H]glycine uptake). The test is classed as cell-based. The conditions noted are these: GlyT1. As to the method: Glycine Uptake Inhibition Experiment
A glycine uptake experiment was conducted in accordance with the method published in Neuron, 8, 927-935, 1992. In the experiment, T98G cells (glioma cells) expressing human type 1 glycine transporter (GlyT1) were used. The T98G cells were seeded in a 96-well plate at 2.0×10^4 cells/well and cultured overnight in a CO2 incubator. The test substance was dissolved in a 100% DMSO solution and then dissolved in a 10 mM HEPES buffer solution (pH 7.4) containing 150 mM sodium chloride, 1 mM calcium chloride, 5 mM potassium chloride, 1 mM magnesium chloride, 10 mM glucose and 0.2% bovine serum albumin. After removing the cell culture medium, the test substance was subjected to a 10-min pretreatment. Subsequently, the test substance and [^3H] glycine (final concentration: 250 nM) were added to the cells and reaction was performed at room temperature for 15 minutes. After the end of the reaction, the extracellular fluid was aspirated with a manifold to remove excess labeled glycine present outside the cells, and then the cells were lysed with a 0.5 M aqueous sodium hydroxide solution. The glycine content in the cells was determined by measuring the radioactivity in the cell lysate with a liquid scintillation counter. Glycine uptake in the presence of 10 μM ALX5407 was defined as non-specific uptake, and the value calculated by subtracting the amount of the non-specific uptake from the total uptake in the absence of 10 μM ALX5407 was defined as specific uptake. In addition, glycine uptake inhibitory activity (IC50 value) was calculated from an inhibition curve at the concentrations of each test substance ranging from 10^−9 to 10^−5 M. It should be noted that ALX5407 is an HCl salt of N-[(3R)-3-([1,1′-biphenyl]-4-yloxy)-3-(4-fluorophenyl)propyl]-N-methylglycine.
Broadly, the IC50 is the midpoint of a concentration-inhibition curve. The low end stands for greater potency in that assay, the high end for weaker potency in that assay. As for “3,4-dichloro-N-[(2-chloro-3-fluorophenyl)(cis-4-fluoro-1-hydroxycyclohexyl)methyl]benzamide [Compound 252]”, half-maximal inhibition (IC50) required 4.7 µM. This lies in the single-digit micromolar range.
The result for `CCn1cc(-c2cccc(C(NC(=O)c3nccc(C(F)(F)F)c3Cl)C3(O)CCCC3)c2)cn1` (single isomer, unassigned) [Compound 13, 3-chloro-N-{[3-(1-ethyl-1H-pyrazol-4-yl)phenyl](1-hydroxycyclopentyl)methyl}-4-(trilfuoromethyl)pyridine-2-carboxamide] reads 0.83 µM.
In turn, `CCn1cc(-c2cccc(C(NC(=O)c3nccc(C(F)(F)F)c3Cl)C3(O)CCCC3)c2)cn1` (single isomer, unassigned) [Compound 14, 3-chloro-N-{[3-(1-ethyl-1H-pyraozl-4-yl)phenyl](1-hydroxycyclopentyl)methyl}-4-(trifluoromethyl)pyridine-2-carboxamide] registered an IC50 of 0.013 µM.
On to `O=C(NC(c1cccc(-c2cccnc2)c1)C1(O)CCCC1)c1nccc(C(F)(F)F)c1Cl` (single isomer, unassigned) [Compound 24, 3-chloro-N-{(1-hydroxycyclopentyl)[3-(pyridin-3-yl)phenyl]methyl}-4-(trifluoromethyl)pyridine-2-carboxamide], for which half-maximal inhibition (IC50) required 2 µM.
With `O=C(NC(c1cccc(-c2cccnc2)c1)C1(O)CCCC1)c1nccc(C(F)(F)F)c1Cl` (single isomer, unassigned) [Compound 25, 3-chloro-N-{(1-hydroxycylcopentyl)[3-(pyridin-3-yl)phenyl]methyl}-4-(trifluoromethyl)pyridine-2-carboxamide], the IC50 came to 0.069 µM.
The result for `O=C(NC(c1cccc(-c2cccnc2)c1)C1(O)CCCCC1)c1nccc(C(F)(F)F)c1Cl` (single isomer, unassigned) [Compound 27, 3-chloro-N-{(1-hydroxycyclohexyl)[3-(pyridin-3-yl)phenyl]methyl}-4-(trifluoromethyl)pyridine-2-carboxamide] reads 0.74 µM; that for `O=C(NC(c1cccc(-c2cccnc2)c1)C1(O)CCCCC1)c1nccc(C(F)(F)F)c1Cl` (single isomer, unassigned) [Compound 28, 3-chloro-N-{(1-hydroxycyclohexyl)[3-(pyridin-3-yl)phenyl]methyl}-4-(trifluoromethyl)pyridine-2-carboxamide], 0.02 µM; that for `O=C(NC(c1cccc(Br)c1)C1(O)CCCCC1)c1nccc(C(F)(F)F)c1Cl` (single isomer, unassigned) [Compound 42, N-[(3-bromophenyl)(1-hydroxycyclohexyl)methyl]-3-chloro-4-(trilfuoromethyl)pyridine-2-carboxamide], 0.038 µM.
The result for `O=C(NC(c1cccc(Br)c1)C1(O)CCCCC1)c1nccc(C(F)(F)F)c1Cl` (single isomer, unassigned) [Compound 43, N-[(3-bromophenyl)(1-hydroxycyclohexyl)methyl]-3-chloro-4-(trifluoromethyl)pyridine-2-carboxamide] reads 1.4 µM; that for `O=C(NC(c1cccc(F)c1)C1(O)CCCC1)c1nccc(C(F)(F)F)c1Cl` (single isomer, unassigned) [Compound 52, 3-chloro-N-[(3-fluorophenyl)(1-hydroxycyclopentyl)methyl]-4-(trifluoromethyl)pyridine-2-carboxamide], 0.1 µM; that for `O=C(NC(c1cccc(F)c1)C1(O)CCCC1)c1nccc(C(F)(F)F)c1Cl` (single isomer, unassigned) [Compound 53, 3-chloro-N-[(3-fluorophenyl)(1-hydroxycyclopentyl)methyl]-4-(trifluoromethyl)pyridine-2-carboxamide], 1.5 µM.
Turning to `O=C(NC(c1cccc(Cl)c1)C1(O)CCCC1)c1nccc(C(F)(F)F)c1Cl` (single isomer, unassigned) [Compound 54, 3-chloro-N-[(3-chlorophenyl)(1-hydroxycyclopentyl)methyl]-4-(trifluoromethyl)pyridine-2-carboxamide], the IC50 came to 0.057 µM.
Next, `O=C(NC(c1cccc(Cl)c1)C1(O)CCCC1)c1nccc(C(F)(F)F)c1Cl` (single isomer, unassigned) [Compound 55, 3-chloro-N-[(3-chlorophenyl)(1-hydroxycyclopentyl)methyl]-4-(trifluoromethyl)pyridine-2-carboxamide]: 8 µM.
The result for `Cc1cccc(C(NC(=O)c2nccc(C(F)(F)F)c2Cl)C2(O)CCCC2)c1` (single isomer, unassigned) [Compound 56, 3-chloro-N-[(1-hydroxycyclopentyl)(3-methylphenyl)methyl]-4-(trifluoromethyl)pyridine-2-carboxamide] reads 0.24 µM; that for `COc1cccc(C(NC(=O)c2nccc(C(F)(F)F)c2Cl)C2(O)CCCC2)c1` (single isomer, unassigned) [Compound 57, 3-chloro-N-[(1-hydroxycyclopentyl)(3-methoxyphenyl)methyl]-4-(trifluoromethyl)pyridine-2-carboxamide], 0.15 µM.
The result for `O=C(NC(c1ccc(F)cc1)C1(O)CCCC1)c1nccc(C(F)(F)F)c1Cl` (single isomer, unassigned) [Compound 58, 3-chloro-N-[(4-fluorophenyl)(1-hydroxycyclopentyl)methyl]-4-(trifluoromethyl)pyridine-2-carboxamide] reads 0.76 µM; that for `O=C(NC(c1ccc(F)cc1)C1(O)CCCC1)c1nccc(C(F)(F)F)c1Cl` (single isomer, unassigned) [Compound 59, 3-chloro-N-[(4-fluorophenyl)(1-hydroxycyclopentyl)methyl]-4-(trifluoromethyl)pyridine-2-carboxamide], 9.5 µM.
`O=C(NC(c1ccccc1F)C1(O)CCCC1)c1nccc(C(F)(F)F)c1Cl` (single isomer, unassigned) [Compound 60, 3-chloro-N-[(2-fluorophenyl)(1-hydroxycyclopentyl)methyl]-4-(trifluoromethyl)pyridine-2-carboxamide] came in with an IC50 of 0.2 µM.
For `O=C(NC(c1ccccc1F)C1(O)CCCC1)c1nccc(C(F)(F)F)c1Cl` (single isomer, unassigned) [Compound 61, 3-chloro-N-[(2-fluorophenyl)(1-hydroxycyclopentyl)methyl]-4-(trifluoromethyl)pyridine-2-carboxamide], the IC50 was 3 µM. This IC50 is about 15-fold higher than that of the compound before.
Next, `O=C(NC(c1cccc(F)c1)C1(O)CCC1)c1nccc(C(F)(F)F)c1Cl` (single isomer, unassigned) [Compound 66, 3-chloro-N-[(3-fluorophenyl)(1-hydroxycyclobutyl)methyl]-4-(trifluoromethyl)pyridine-2-carboxamide]: 0.69 µM; `O=C(NC(c1cccc(F)c1)C1(O)CCCCC1)c1nccc(C(F)(F)F)c1Cl` (single isomer, unassigned) [Compound 67, 3-chloro-N-[(3-fluorophenyl)(1-hydroxycyclohexyl)methyl]-4-(trifluoromethyl)pyridine-2-carboxamide]: 0.029 µM.
`O=C(NC(c1cccc(F)c1)C1(O)CCCCC1)c1nccc(C(F)(F)F)c1Cl` (single isomer, unassigned) [Compound 68, 3-chloro-N-[(3-fluorophenyl)(1-hydroxycyclohexyl)methyl]-4-(trifluoromethyl)pyridine-2-carboxamide] returned an IC50 of 2.6 µM.
The result for `O=C(NC(c1cccc(F)c1)C1(O)CCCC1)c1cccc(C(F)(F)F)c1Cl` (single isomer, unassigned) [Compound 72, 2-chloro-N-[(3-fluorophenyl)(1-hydroxycyclopentyl)methyl]-3-(trifluoromethyl)benzamide] reads 7.1 µM; that for `O=C(NC(c1cccc(F)c1)C1(O)CCCC1)c1cccc(C(F)(F)F)c1Cl` (single isomer, unassigned) [Compound 73, 2-chloro-N-[(3-fluorophenyl)(1-hydroxycyclopentyl)methyl]-3-(trifluoromethyl)benzamide], 0.22 µM.

The values above are taken from patent US20160130278A1 (TAISHO PHARMACEUTICAL CO., LTD, priority 2013, published 2016).
